Here are results for 27 compounds from patent US20040224958A1, “Pyridopyrimidinone derivatives for treatment of neurodegenerative disease” (priority 2000, published 2004).

Like-named read-outs stand apart in the source and are kept apart here.

One series has as its target Cdk5/p25 (Homo sapiens, UniProt Q00535). As to the kind of experiment: Cyclin-Dependent Kinase 5 (cdk5) Assay. It counts as biochemical. As to the method:
Cyclin-Dependent Kinase 5 (cdk5) Assay
Enzyme assays for IC50 determinations and kinetic evaluation were performed in 96-well filter plates (Millipore MAPH NOB 10). […] All components except histone and ATP were added to wells, and the plate was placed on a shaker for 5 minutes. The reaction was started by adding histone and [^32P]ATP, and the plate was shaken at 30° C. for 45 minutes. The reaction was terminated by addition of 0.1 mL of 150 mM phosphoric acid. The plate was kept at 4° C. for 30 minutes to allow substrate to precipitate. The wells were then washed three times with 0.2 mL of 75 mM phosphoric acid and ^32P incorporation was determined with a beta plate counter (Wallac Inc, Gaithersburg, Md.).

The next series concerns the target cdk4/D (Homo sapiens, UniProt P11802). Kind of series: Cyclin-Dependent Kinase 4 (cdk4) Assay. The format is biochemical.
In a further series the target is cdk2/cyclinE (Homo sapiens, UniProt P24941). As to the kind of experiment: Cyclin-Dependent Kinase Assay cdk2/cyclinE.
The target of a further series is cdk2/cyclinA (Homo sapiens, UniProt P24941). As to the kind of experiment: Cyclin-Dependent Kinase Assay cdk2/cyclinA.
The target of a further series is cdc2/cyclinB (Homo sapiens, UniProt P06493). As to the kind of experiment: Cyclin-Dependent Kinase Assay cdc2/cyclinB.
Chain of cdc2/cyclinB (P06493 whole entry): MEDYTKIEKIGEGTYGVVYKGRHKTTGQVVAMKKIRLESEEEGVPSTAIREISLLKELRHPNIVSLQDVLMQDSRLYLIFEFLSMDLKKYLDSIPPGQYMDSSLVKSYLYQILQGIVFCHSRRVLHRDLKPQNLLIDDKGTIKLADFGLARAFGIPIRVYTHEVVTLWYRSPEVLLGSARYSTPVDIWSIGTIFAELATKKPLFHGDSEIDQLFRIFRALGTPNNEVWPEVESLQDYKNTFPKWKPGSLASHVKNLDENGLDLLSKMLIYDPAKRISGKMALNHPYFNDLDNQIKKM
Chain of cdc2/cyclinB (P14635 whole entry, further chain): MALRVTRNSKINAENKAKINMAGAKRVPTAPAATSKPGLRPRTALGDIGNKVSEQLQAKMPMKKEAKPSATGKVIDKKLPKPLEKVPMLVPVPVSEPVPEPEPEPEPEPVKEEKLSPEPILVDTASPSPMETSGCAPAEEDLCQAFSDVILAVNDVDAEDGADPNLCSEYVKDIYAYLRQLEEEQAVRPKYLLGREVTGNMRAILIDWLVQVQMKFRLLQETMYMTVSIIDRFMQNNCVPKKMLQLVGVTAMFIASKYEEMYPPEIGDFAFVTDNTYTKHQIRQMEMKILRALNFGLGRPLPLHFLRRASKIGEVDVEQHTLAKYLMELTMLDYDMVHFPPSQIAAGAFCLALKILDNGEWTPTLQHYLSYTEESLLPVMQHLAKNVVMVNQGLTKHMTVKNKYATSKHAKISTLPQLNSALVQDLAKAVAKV

Chain of cdk4/D (P11802 whole entry): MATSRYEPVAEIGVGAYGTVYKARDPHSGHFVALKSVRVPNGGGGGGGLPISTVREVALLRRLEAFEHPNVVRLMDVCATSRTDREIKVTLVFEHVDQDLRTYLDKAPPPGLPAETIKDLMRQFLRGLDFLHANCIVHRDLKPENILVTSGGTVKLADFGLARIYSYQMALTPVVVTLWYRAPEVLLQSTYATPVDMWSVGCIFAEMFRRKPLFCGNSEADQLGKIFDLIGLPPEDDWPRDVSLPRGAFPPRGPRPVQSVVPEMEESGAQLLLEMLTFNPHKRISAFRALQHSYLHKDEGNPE
Chain of cdk4/D (P24385 whole entry, further chain): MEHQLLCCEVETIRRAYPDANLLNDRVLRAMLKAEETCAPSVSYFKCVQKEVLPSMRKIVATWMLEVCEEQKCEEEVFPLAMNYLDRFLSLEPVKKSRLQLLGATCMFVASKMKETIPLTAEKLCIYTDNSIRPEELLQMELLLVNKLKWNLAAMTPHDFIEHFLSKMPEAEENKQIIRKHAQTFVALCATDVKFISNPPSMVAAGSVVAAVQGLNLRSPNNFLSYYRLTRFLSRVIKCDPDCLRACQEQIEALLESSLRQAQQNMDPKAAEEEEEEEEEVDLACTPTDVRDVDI
Procedure for cdk2/cyclinA: Cyclin-Dependent Kinase Assays (cdk2/cyclinE, cdk2/cyclinA, cdc2/cyclinB)
All components except the ATP were added to the wells, and the plate was placed on a plate mixer for 2 minutes. The reaction was begun by addition of [^32P]ATP, and the plate was incubated at 25° C. for 15 minutes. The reaction was terminated by addition of 0.1 mL of 20% TCA. The plate was kept at 4° C. for at least 1 hour to allow the substrate to precipitate. The wells were then washed five times with 0.2 mL of 10% TCA and ^32p incorporation determined with a beta plate counter (Wallac Inc., Gaithersburg, Md.).

One may read the melting point as the temperature of the solid-liquid transition. The compound `O=c1ccc2cnc(Nc3ccccc3)nc2n1Cc1ccccc1` [Example 35, 8-Benzyl-2-phenylamino-8H-pyrido[2,3-d]pyrimidin-7-one] showed a melting point of 215 to 216 °C. The compound further displayed an IC50 at Cdk5/p25 (Table 1) of 310 nM. For the same compound, the IC50 at cdk4/D (Table 1, read-out: cdk4/D IC50) was determined as 940 nM. Also, the IC50 against cdk2/cyclinE (cdk2/E IC50, Table 1) came to 33800 nM.

`Cn1c(=O)ccc2cnc(Nc3ccccc3)nc21` [Example 61, 8-Methyl-2-phenylamino-8H-pyrido[2,3-d]pyrimidin-7-one] showed a melting point of 244 to 247 °C. The IC50 against Cdk5/p25 (Table 3) was 89 nM. Also, the IC50 on cdk4/D (Table 3, read-out: Cdk4 IC50) was found to be 5480 nM. On cdk2/cyclinE (Cdk2/E IC50, Table 3), this compound had an IC50 of 1680 nM. On cdk2/cyclinA (Cdk2/A IC50, Table 3), the IC50 was found to be 1150 nM.

As for `CCn1c(=O)c(C)cc2cnc(Nc3ccc(N4CCN(C)CC4)cc3)nc21` [Example 84, 8-Ethyl-6-methyl-2-[4-(4-methyl-piperazin-1-yl)-phenylamino]-8H-pyrido[2,3-d]pyrimidin-7-one], the melting point lay within 198 to 200 °C. The IC50 against Cdk5/p25 (Table 1) stood at 765 nM.

`CCn1c(=O)ccc2cnc(Nc3ccc(F)cc3)nc21` [Example 88, 8-Ethyl-2-(4-fluorophenylamino)-8H-pyrido[2,3-d]pyrimidin-7-one] gave a melting point of 215 to 217 °C. On Cdk5/p25 (Table 1), this compound gave an IC50 of 53 nM. This compound came in with an IC50 on Cdk5/p25 (Table 3) of 32 nM. The IC50 on cdk4/D (Table 3, read-out: Cdk4 IC50) is 1240 nM. The IC50 at cdk2/cyclinE (Cdk2/E IC50, Table 3) turned out to be 560 nM. The compound further returned an IC50 against cdk2/cyclinA (Cdk2/A IC50, Table 3) of 421 nM.

The compound `CCn1c(=O)ccc2cnc(Nc3cccc(F)c3)nc21` [Example 89, 8-Ethyl-2-(3-fluorophenylamino)-8H-pyrido[2,3-d]pyrimidin-7-one] had a melting point of 210 to 212 °C. The compound further came in with an IC50 at Cdk5/p25 (Table 1) of 393 nM.

As to `CCn1c(=O)ccc2cnc(Nc3ccc(OC)c(F)c3)nc21` [Example 90, 8-Ethyl-2-(3-fluoro-4-methoxyphenylamino)-8H-pyrido[2,3-d]pyrimidin-7-one], the melting point is 196 to 198 °C. Also, the IC50 against Cdk5/p25 (Table 1) was 29 nM.

For the compound `CCn1c(=O)ccc2cnc(Nc3cccc(F)c3OC)nc21` [Example 91, 8-Ethyl-2-(3-fluoro-2-methoxyphenylamino)-8H-pyrido[2,3-d]pyrimidin-7-one], the melting point fell in the range of 92 to 93 °C. Besides, the IC50 against Cdk5/p25 (Table 1) amounted to 4450 nM.

`CCn1c(=O)ccc2cnc(Nc3ccccc3OC)nc21` [Example 92, 8-Ethyl-2-(2-methoxyphenylamino)-8H-pyrido[2,3-d]pyrimidin-7-one] gave a melting point of 126 to 128 °C. Also, at Cdk5/p25 (Table 1), the IC50 was 1680 nM.

On to `CCn1c(=O)ccc2cnc(Nc3ccc(N(C)C)cc3)nc21` [Example 93, 2-(4-Dimethylamino-phenylamino)-8-ethyl-8H-pyrido[2,3-d]pyrimidin-7-one], for which the melting point was 189 to 191 °C. The same compound registered an IC50 at Cdk5/p25 (Table 1) of 64 nM.

Regarding `O=c1ccc2cnc(Nc3ccccc3)nc2n1C1CCCC1` [Example 108, 8-Cyclopentyl-2-phenylamino-8H-pyrido[2,3-d]pyrimidin-7-one], the melting point was in the range of 188 to 192 °C. The compound also registered an IC50 on Cdk5/p25 (Table 1) of 26 nM.

The compound `COc1ccc(Nc2ncc3ccc(=O)n(C(C)C)c3n2)cc1` [Example 111, 8-Isopropyl-2-(4-methoxy-phenylamino)-8H-pyrido[2,3-d]pyrimidin-7-one] showed a melting point of 153 to 155 °C. Besides, the IC50 against Cdk5/p25 (Table 3) amounted to 9.8 nM. Further, the IC50 at cdk4/D (Table 3, read-out: Cdk4 IC50) came out at 617 nM. On cdk2/cyclinE (Cdk2/E IC50, Table 3), this compound returned an IC50 of 580 nM. At cdk2/cyclinA (Cdk2/A IC50, Table 3), this compound returned an IC50 of 120 nM.

`CCN(CC)CCOc1ccc(Nc2ncc3ccc(=O)n(C4CCCC4)c3n2)cc1` [Example 117, 8-Cyclopentyl-2-[4-(2-diethylamino-ethoxy)-phenylamino]-8H-pyrido[2,3-d]pyrimidin-7-one] registered a melting point of 105 to 107 °C. On Cdk5/p25 (Table 1), this compound had an IC50 of 19 nM. Besides, the IC50 on cdk4/D (Table 1, read-out: cdk4/D IC50) was 6.6 nM. For the same compound, the IC50 against cdk2/cyclinE (cdk2/E IC50, Table 1) was 109 nM. In addition, the IC50 on cdk2/cyclinA (cdk2/A IC50, Table 1) was 42.5 nM.

In the case of `CCN(CC)CCOc1ccc(Nc2ncc3ccc(=O)n(-c4ccccc4)c3n2)cc1` [Example 118, 2-[4-(2-Diethylamino-ethoxy)-phenylamino]-8-phenyl-8H-pyrido[2,3-d]pyrimidin-7-one], the melting point lay in the range of 165 to 167 °C. Besides, at Cdk5/p25 (Table 1), the IC50 was found to be 237 nM. Besides, the IC50 on cdk4/D (Table 1, read-out: cdk4/D IC50) is 200 nM. Moreover, the IC50 against cdk2/cyclinE (cdk2/E IC50, Table 1) worked out at 1300 nM. Besides, at cdk2/cyclinA (cdk2/A IC50, Table 1), the IC50 was 206 nM.

Turning to `O=c1ccc2cnc(Nc3ccccc3)nc2n1C1CCCCC1` [Example 131, 8-Cyclohexyl-2-phenylamino-8H1-pyrido[2,3-d]pyrimidin-7-one], the melting point is 202 to 204 °C. Moreover, the IC50 at Cdk5/p25 (Table 1) stood at 15 nM.

`CCN(CC)CCOc1ccc(Nc2ncc3ccc(=O)n(C4CC4)c3n2)cc1` [Example 134, 8-Cyclopropyl-2-[4-(2-diethylamino-ethoxy)-phenylamino]-8H-pyrido[2,3-d]pyrimidin-7-one] came in with a melting point of 119 to 121 °C. Also, the IC50 against Cdk5/p25 (Table 1) amounted to 326 nM. Further, the IC50 on cdk4/D (Table 1, read-out: cdk4/D IC50) worked out at 53 nM.

`O=c1ccc2cnc(Nc3ccccc3)nc2n1C1CC1` [Example 135, 8-Cyclopropyl-2-phenylamino-8H-pyrido[2,3-d]pyrimidin-7-one] had a melting point of 191 to 193 °C. The compound further registered an IC50 against Cdk5/p25 (Table 1) of 493 nM.

Regarding `CN1CCN(c2ccc(Nc3ncc4ccc(=O)n(C5CC5)c4n3)cc2)CC1` [Example 136, 8-Cyclopropyl-2-[4-(4-methyl-piperazin-1-yl)-phenylamino]-81H-pyrido[2,3-d]pyrimidin-7-one], the melting point was in the range of 210 to 211 °C. For the same compound, the IC50 against Cdk5/p25 (Table 1) stood at 240 nM.

For `CN1CCN(c2ccc(Nc3ncc4ccc(=O)n(CCOCc5ccccc5)c4n3)cc2)CC1` [Example 140], the melting point lay in the range of 183 to 191 °C. The same compound displayed an IC50 on Cdk5/p25 (Table 1) of 5170 nM. The compound also registered an IC50 on cdk2/cyclinE (cdk2/E IC50, Table 1) of 23600 nM. This compound also showed an IC50 on cdk2/cyclinA (cdk2/A IC50, Table 1) of 13400 nM.

As to `CN(C)c1ccc(Nc2ncc3ccc(=O)n(C4CCCCC4)c3n2)cc1` [Example 147, 8-Cyclohexyl-2-(4-dimethylamino-phenylamino)-8H-pyrido[2,3-d]pyrimidin-7-one], the melting point was 204 to 205 °C. The compound also came in with an IC50 against Cdk5/p25 (Table 1) of 24 nM.

`O=c1ccc2cnc(Nc3ccc(-n4cccc4)cc3)nc2n1C1CCCC1` [Example 190, 8-Cyclopentyl-2-(4-pyrrol-1-yl-phenylamino)-8H-pyrido[2,3-d]pyrimidin-7-one] gave a melting point of 189 to 190 °C. The compound also registered an IC50 at Cdk5/p25 (Table 1) of 31.2 nM. The IC50 on cdk4/D (Table 1, read-out: cdk4/D IC50) was found to be 136 nM. In addition, the IC50 against cdk2/cyclinE (cdk2/E IC50, Table 1) was 120 nM.

For the compound `Cc1cc(C)n(-c2ccc(Nc3ncc4ccc(=O)n(C5CCCC5)c4n3)cc2)n1` [Example 195, 8-Cyclopentyl-2-[4-(3,5-dimethyl-pyrazol-1-yl)-phenylamino]-8H-pyrido[2,3-d]pyrimidin-7-one], the melting point fell in the range of 169 to 171 °C. Also, the IC50 against Cdk5/p25 (Table 1) stood at 156 nM. Further, on cdk4/D (Table 1, read-out: cdk4/D IC50), the IC50 was determined as 133 nM.

Take `O=c1ccc2cnc(Nc3ccc(N4CCC(CCO)CC4)cc3)nc2n1C1CCCC1` [Example 196]: the melting point was 199 to 200 °C. Also, the IC50 on Cdk5/p25 (Table 1) turned out to be 124 nM. The IC50 at cdk4/D (Table 1, read-out: cdk4/D IC50) turned out to be 17 nM. On cdk2/cyclinE (cdk2/E IC50, Table 1), the IC50 came to 47 nM.

As to `O=c1ccc2cnc(Nc3ccc(N4CCC(CCCO)CC4)cc3)nc2n1C1CCCC1` [Example 197, 8-Cyclopentyl-2-{4-[4-(3-hydroxy-propyl)-piperidin-1-yl]-phenylamino]-8H-pyrido[2,3-d]pyrimidin-7-one], the melting point was 208 to 209 °C. Besides, at Cdk5/p25 (Table 1), the IC50 amounted to 127 nM. Moreover, the IC50 at cdk4/D (Table 1, read-out: cdk4/D IC50) worked out at 33.5 nM. The IC50 against cdk2/cyclinE (cdk2/E IC50, Table 1) was found to be 2320 nM. Also, the IC50 against cdc2/cyclinB stood at 7390 nM.

`O=c1ccc2cnc(Nc3ccc(N4CCC(O)CC4)cc3)nc2n1C1CCCC1` [Example 198, 8-Cyclopentyl-2-[4-(4-hydroxy-piperidin-1-yl)-phenylamino]-8H-pyrido[2,3-d]pyrimidin-7-one] yielded a melting point of 216 to 217 °C. The compound also gave an IC50 against Cdk5/p25 (Table 1) of 19 nM. For the same compound, the IC50 at cdk4/D (Table 1, read-out: cdk4/D IC50) was determined as 15 nM. Besides, the IC50 against cdk2/cyclinE (cdk2/E IC50, Table 1) worked out at 44 nM. Also, at cdc2/cyclinB, the IC50 was 118 nM.

Take `O=c1ccc2cnc(Nc3cccc(N4CCCCC4)c3)nc2n1C1CCCC1` [Example 202, 8-Cyclopentyl-2-(3-piperidin-1-yl-phenylamino)-8H-pyrido[2,3-d]pyrimidin-7-one]: the melting point lay in the range of 90 to 91 °C. For the same compound, the IC50 against Cdk5/p25 (Table 1) stood at 77.9 nM. Also, the IC50 at cdk4/D (Table 1, read-out: cdk4/D IC50) is 655 nM.

`O=c1ccc2cnc(Nc3cccc(N4CCCCC4)c3)nc2n1C1CCCCC1` [Example 203, 8-Cyclohexyl-2-(3-piperidin-1-yl-phenylamino)-8H-pyrido[2,3-d]pyrimidin-7-one] came in with a melting point of 164 to 165 °C. Also, on Cdk5/p25 (Table 1), the IC50 was 82.6 nM. Moreover, at cdk4/D (Table 1, read-out: cdk4/D IC50), the IC50 was 500 nM.

In turn, `O=c1ccc2cnc(Nc3ccc(-c4ccccc4)cc3)nc2n1C1CC2CCC1C2` (stereo not drawn) [Example 223, 8-Bicyclo[2.2.1]hept-2-yl-2-(biphenyl-4-ylamino)-8H-pyrido[2,3-d]pyrimidin-7-one] registered a melting point of 255 to 257 °C. Moreover, on Cdk5/p25 (Table 1), the IC50 was determined as 587 nM. Further, the IC50 against cdk2/cyclinE (cdk2/E IC50, Table 1) amounted to 1950 nM. The compound also came in with an IC50 at cdk2/cyclinA (cdk2/A IC50, Table 1) of 18000 nM.
